Assay results reported in patent publication US6426369B1, “Oxethazaine as antimicrobial agent” (Eisai Co., Ltd., priority 1997, dated 2002).

Tests used:
H. pylori [1] = test: Antimicrobial activity test 3: oxethazaine in combination with compound (II), checker board method; format: cell-based; details: Helicobacter pylori
Description: In each Table, the concentration of oxethazaine is shown vertically, and the concentration of compound (II) is shown horizontally. In each Table, “−” indicates the inhibited growth of H. pylori (presence of antimicrobial activity), and “+” indicates the growth of H. pylori (absence of antimicrobial activity). […] It is assumed to be present when the MIC of either oxethazaine or PPI is reduced by ½ (when anti-H. pylori activity is not recognized when the concentrations of both oxethazaine and PPI are reduced to ¼, but anti-H. pylori activity is recognized when the concentration of one compound is reduced to ¼ and simultaneously the concentration of the other compound is reduced to ½.).

H. pylori [2] = test: Antimicrobial activity test 6: oxethazaine in combination with an antibiotic (AMPC, CAM, RXM), checker board method; format: cell-based, Helicobacter pylori; parameters: key to growth of H. pylori: “−” indicates the inhibited growth of H. pylori (presence of antimicrobial activity); “+” indicates the growth of H. pylori (absence of antimicrobial activity)
Description: The effect of combined use with amoxicillin (AMPC), clarithromycin (CAM) or roxithromycin (RXM) was examined in the same manner as in antimicrobial activity test 1, using the checker board method.

CN(C(=O)CN(CCO)CC(=O)N(C)C(C)(C)Cc1ccccc1)C(C)(C)Cc1ccccc1 [Oxethazaine, 2,2′-[(2-hydroxyethyl)amino]bis[N-(1,1-dimethyl-2-phenylethyl)-N-methylacetamide]]
MIC (H. pylori [1]; NCTC11637, NCTC 11637): 25 µg/mL | MIC (H. pylori [1]; NCTC11639, NCTC 11639): 50 µg/mL | growth of H. pylori (H. pylori [2]; 89-355, oxethazaine 3.13 + CAM 0 μg/ml): + | growth of H. pylori (H. pylori [2]; 89-355, oxethazaine 6.25 + CAM 0 μg/ml): + | growth of H. pylori (H. pylori [2]; 89-355, oxethazaine 12.5 + CAM 0 μg/ml): − | growth of H. pylori (H. pylori [2]; 89-355, oxethazaine 25 + CAM 0 μg/ml): − | growth of H. pylori (H. pylori [2]; 89-355, oxethazaine 50 + CAM 0 μg/ml): − | growth of H. pylori (H. pylori [2]; 89-355, oxethazaine 100 + CAM 0 μg/ml): − | growth of H. pylori (H. pylori [2]; 89-357, oxethazaine 3.13 + CAM 0 μg/ml): + | growth of H. pylori (H. pylori [2]; 89-357, oxethazaine 6.25 + CAM 0 μg/ml): + | growth of H. pylori (H. pylori [2]; 89-357, oxethazaine 12.5 + CAM 0 μg/ml): + | growth of H. pylori (H. pylori [2]; 89-357, oxethazaine 25 + CAM 0 μg/ml): − | growth of H. pylori (H. pylori [2]; 89-357, oxethazaine 50 + CAM 0 μg/ml): − | growth of H. pylori (H. pylori [2]; 89-357, oxethazaine 100 + CAM 0 μg/ml): − | growth of H. pylori (H. pylori [2]; 90-388, oxethazaine 3.13 + CAM 0 μg/ml): + | growth of H. pylori (H. pylori [2]; 90-388, oxethazaine 6.25 + CAM 0 μg/ml): + | growth of H. pylori (H. pylori [2]; 90-388, oxethazaine 12.5 + CAM 0 μg/ml): + | growth of H. pylori (H. pylori [2]; 90-388, oxethazaine 25 + CAM 0 μg/ml): − | growth of H. pylori (H. pylori [2]; 90-388, oxethazaine 50 + CAM 0 μg/ml): − | growth of H. pylori (H. pylori [2]; 90-388, oxethazaine 100 + CAM 0 μg/ml): − | growth of H. pylori (H. pylori [2]; 90-390, oxethazaine 3.13 + CAM 0 μg/ml): + | growth of H. pylori (H. pylori [2]; 90-390, oxethazaine 6.25 + CAM 0 μg/ml): + | growth of H. pylori (H. pylori [2]; 90-390, oxethazaine 12.5 + CAM 0 μg/ml): + | growth of H. pylori (H. pylori [2]; 90-390, oxethazaine 25 + CAM 0 μg/ml): − | growth of H. pylori (H. pylori [2]; 90-390, oxethazaine 50 + CAM 0 μg/ml): − | growth of H. pylori (H. pylori [2]; 90-390, oxethazaine 100 + CAM 0 μg/ml): − | growth of H. pylori (H. pylori [2]; EH 12, oxethazaine 3.13 + CAM 0 μg/ml): + | growth of H. pylori (H. pylori [2]; EH 12, oxethazaine 6.25 + CAM 0 μg/ml): + | growth of H. pylori (H. pylori [2]; EH 12, oxethazaine 12.5 + CAM 0 μg/ml): − | growth of H. pylori (H. pylori [2]; EH 12, oxethazaine 25 + CAM 0 μg/ml): − | growth of H. pylori (H. pylori [2]; EH 12, oxethazaine 50 + CAM 0 μg/ml): − | growth of H. pylori (H. pylori [2]; EH 12, oxethazaine 100 + CAM 0 μg/ml): − | growth of H. pylori (H. pylori [2]; EH 13, oxethazaine 3.13 + CAM 0 μg/ml): + | growth of H. pylori (H. pylori [2]; EH 13, oxethazaine 6.25 + CAM 0 μg/ml): + | growth of H. pylori (H. pylori [2]; EH 13, oxethazaine 12.5 + CAM 0 μg/ml): + | growth of H. pylori (H. pylori [2]; EH 13, oxethazaine 25 + CAM 0 μg/ml): − | growth of H. pylori (H. pylori [2]; EH 13, oxethazaine 50 + CAM 0 μg/ml): − | growth of H. pylori (H. pylori [2]; EH 13, oxethazaine 100 + CAM 0 μg/ml): − | growth of H. pylori (H. pylori [2]; strain 90-388, oxethazaine 3.13 μg/ml, AMPC 0): + | growth of H. pylori (H. pylori [2]; strain 90-388, oxethazaine 6.25 μg/ml, AMPC 0): + | growth of H. pylori (H. pylori [2]; strain 90-388, oxethazaine 12.5 μg/ml, AMPC 0): + | growth of H. pylori (H. pylori [2]; strain 90-388, oxethazaine 25 μg/ml, AMPC 0): − | growth of H. pylori (H. pylori [2]; strain 90-388, oxethazaine 50 μg/ml, AMPC 0): − | growth of H. pylori (H. pylori [2]; strain 90-388, oxethazaine 100 μg/ml, AMPC 0): − | growth of H. pylori (H. pylori [2]; strain 90-390, oxethazaine 3.13 μg/ml, AMPC 0): + | growth of H. pylori (H. pylori [2]; strain 90-390, oxethazaine 6.25 μg/ml, AMPC 0): + | growth of H. pylori (H. pylori [2]; strain 90-390, oxethazaine 12.5 μg/ml, AMPC 0): + | growth of H. pylori (H. pylori [2]; strain 90-390, oxethazaine 25 μg/ml, AMPC 0): − | growth of H. pylori (H. pylori [2]; strain 90-390, oxethazaine 50 μg/ml, AMPC 0): − | growth of H. pylori (H. pylori [2]; strain 90-390, oxethazaine 100 μg/ml, AMPC 0): − | growth of H. pylori (H. pylori [2]; strain 90-397, CAM 0 μg/ml (oxethazaine alone), oxethazaine μg/ml by row r6-r11: 100, 50, 25, 12.5, 6.25, 3.13): + | growth of H. pylori (H. pylori [2]; strain 90-397, CAM 0.006 μg/ml, oxethazaine μg/ml: 100, 50, 25, 12.5, 6.25, 3.13, 0): + | growth of H. pylori (H. pylori [2]; strain 90-397, CAM 0.012 μg/ml, oxethazaine μg/ml: 100, 50, 25, 12.5, 6.25, 3.13, 0): + | growth of H. pylori (H. pylori [2]; strain 90-397, CAM 0.024 μg/ml, oxethazaine μg/ml: 100, 50, 25, 12.5, 6.25, 3.13, 0): + | growth of H. pylori (H. pylori [2]; strain 90-397, CAM 0.05 μg/ml, oxethazaine μg/ml: 100, 50, 25, 12.5, 6.25, 3.13, 0): + | growth of H. pylori (H. pylori [2]; strain 90-397, CAM 0.1 μg/ml, oxethazaine μg/ml: 100, 50, 25, 12.5, 6.25, 3.13, 0): − | growth of H. pylori (H. pylori [2]; strain 90-397, CAM 0.2 μg/ml, oxethazaine μg/ml: 100, 50, 25, 12.5, 6.25, 3.13, 0): − | growth of H. pylori (H. pylori [2]; strain 90-397, CAM 0.4 μg/ml, oxethazaine μg/ml: 100, 50, 25, 12.5, 6.25, 3.13, 0): − | growth of H. pylori (H. pylori [2]; strain 90-397, CAM 0.8 μg/ml, oxethazaine μg/ml: 100, 50, 25, 12.5, 6.25, 3.13, 0): − | growth of H. pylori (H. pylori [2]; strain 90-397, CAM 1.56 μg/ml, oxethazaine μg/ml: 100, 50, 25, 12.5, 6.25, 3.13, 0): − | growth of H. pylori (H. pylori [2]; strain 90-397, CAM 3.13 μg/ml, oxethazaine μg/ml: 100, 50, 25, 12.5, 6.25, 3.13, 0): − | growth of H. pylori (H. pylori [2]; strain 90-397, CAM 6.25 μg/ml, oxethazaine μg/ml: 100, 50, 25, 12.5, 6.25, 3.13, 0): − | growth of H. pylori (H. pylori [2]; strain 90-397, CAM 12.5 μg/ml, oxethazaine μg/ml: 100, 50, 25, 12.5, 6.25, 3.13, 0): − | growth of H. pylori (H. pylori [2]; strain 90-397, CAM 25 μg/ml, oxethazaine μg/ml: 100, 50, 25, 12.5, 6.25, 3.13, 0): − | growth of H. pylori (H. pylori [2]; strain 90-397, CAM 50 μg/ml, oxethazaine μg/ml: 100, 50, 25, 12.5, 6.25, 3.13, 0): − | growth of H. pylori (H. pylori [2]; strain 90-397, CAM 100 μg/ml, oxethazaine μg/ml: 100, 50, 25, 12.5, 6.25, 3.13, 0): − | combined effect of oxethazaine and CAM (H. pylori [2]; strain 90-397, checker board): 90-397 (synergism) | growth of H. pylori (H. pylori [2]; strain 90-407, CAM 0 μg/ml (oxethazaine alone), oxethazaine μg/ml by row r14-r19: 100, 50, 25, 12.5, 6.25, 3.13): − | growth of H. pylori (H. pylori [2]; strain 90-407, CAM 0.006 μg/ml, oxethazaine μg/ml: 100, 50, 25, 12.5, 6.25, 3.13, 0): − | growth of H. pylori (H. pylori [2]; strain 90-407, CAM 0.012 μg/ml, oxethazaine μg/ml: 100, 50, 25, 12.5, 6.25, 3.13, 0): − | growth of H. pylori (H. pylori [2]; strain 90-407, CAM 0.024 μg/ml, oxethazaine μg/ml: 100, 50, 25, 12.5, 6.25, 3.13, 0): − | growth of H. pylori (H. pylori [2]; strain 90-407, CAM 0.05 μg/ml, oxethazaine μg/ml: 100, 50, 25, 12.5, 6.25, 3.13, 0): − | growth of H. pylori (H. pylori [2]; strain 90-407, CAM 0.1 μg/ml, oxethazaine μg/ml: 100, 50, 25, 12.5, 6.25, 3.13, 0): − | growth of H. pylori (H. pylori [2]; strain 90-407, CAM 0.2 μg/ml, oxethazaine μg/ml: 100, 50, 25, 12.5, 6.25, 3.13, 0): −
